In patent publication US7846968B2, “Methods for QT interval control” (Janssen Pharmaceutica, N.V., priority 2005, dated 2010):

Legend:
healthy adults = assay: Double-blind, randomized, 3-way crossover, placebo- and active-control study of cardiovascular (QT/QTc) effects; assay type: in vivo, human; conditions: for Mean change from pretreatment baseline in QTc interval (mean ΔQTc), Bazett correction / Mean change from pretreatment baseline in QTc interval (mean ΔQTc), Individual Correction Method / Mean change from pretreatment baseline in QTc interval (mean ΔQTc), Fridericia correction: moxifloxacin 400 mg single oral dose; for Mean change from pretreatment baseline in QTc interval (mean ΔQTc), Fridericia correction: time-matched baseline Day 0; for Maximum decrease in QTc-F compared to baseline: individual subjects; for Maximum decrease in QTc-F compared to baseline / Number of subjects with QTc shortening between 30 and 60 ms compared to baseline: QTc-F; for Reduction of the mean QTc-F interval compared to pretreatment baseline (Day 0): stated as reduction
Experimental: (§1) The study of the cardiovascular effects of a carbamate compound of the present invention, shown as Formula 7 above, and hereafter referred to as “the test compound” was a single-center, double-blind, randomized, 3-way crossover, placebo- and active-control study. The test compound was studied at a dose of 1,500 mg/day (750 mg twice daily) both after acute dosing ([…], Day 1) and at steady state (Day 7). The study also evaluated the delayed post-treatment effects on Days 8-10. Moxifloxacin (400 mg, single oral dose) was used as an active control for the evaluation of QT/QTc on both Days 1 and 7.
(§2) Of the 38 subjects enrolled, 35 completed all 3 treatment conditions (placebo, moxifloxacin, test compound). Two subjects withdrew electively after receiving the first 3 days of the last treatment period (1 in moxifloxacin and 1 in test compound), and the last one withdrew because of an adverse event (respiratory tract infection) after the first treatment period (placebo), and before receiving any other treatment. Thus, all 38 subjects completed placebo treatment, 36 subjects completed the test compound treatment (and an additional subject provided data for Days 0 and 1 on test compound), and 36 completed moxifloxacin treatment (and 1 provided data for Days 0 and 1 on moxifloxacin). All 38 subjects were included in the safety evaluation; all collected drug level measurements and all available ECG recordings were included in data analyses.
The study population consisted of 38 healthy adults (20 men and 18 women), age 18 to 50 years, with normal 12-lead ECG (normal sinus rhythm, QTc and QRS intervals) and no history of cardiovascular disease. Of the 38 subjects enrolled, 35 completed all 3 treatment conditions (placebo, moxifloxacin, test compound). Two subjects withdrew electively after receiving the first 3 days of the last treatment period (1 in moxifloxacin and 1 in test compound), and the last one withdrew because of an adverse event (respiratory tract infection) after the first treatment period (placebo), and before receiving any.
as §2, with “The study population consisted of 38 healthy adults (20 men and 18 women), age 18 to 50 years, with normal 12-lead ECG (normal sinus rhythm, QTc and QRS intervals) and no history of cardiovascular disease. Of” for “Of”, “completed” for “completed the”
During each treatment period, 11 12-lead ECGs were collected at the same time of the day on Day 0 (baseline), Day 1 (initial treatment), and Day 7 (steady-state treatment); 4 additional ECGs were collected at exactly 24, 36, 48, and 72 hours after the last dose of Day 7 (post-treatment).
All ECG recordings of the same subject were read by the same blinded cardiologist. The QT intervals, from the onset of the QRS complex to the end of the T wave, were determined by the method of overlapping medians. The key QTc variables used in the assessment are listed below. The change from baseline (ΔQTc) was calculated using time-matched values. The following parameters were calculated for each subject and treatment by averaging over all time points during the 12-hour dosing interval. […]

[1] = Pharmacokinetics / drug level measurements in the crossover QT study; assay type: in vivo, human
Experimental: as §1
as §2, with “All 38 subjects were included in the safety evaluation; all collected drug level measurements and all available ECG recordings were included in data analyses.” left out

[2] = Day 1 (acute dosing), test compound 250 mg
[3] = Day 1 (acute dosing), test compound 250 mg, averaged over 12-hour dosing interval
[4] = Day 7 (steady state), test compound 1,500 mg/day (750 mg twice daily)

Row | Compound | Mean change from pretreatment baseline in QTc interval (mean ΔQTc), Bazett correction (healthy adults; [2]) | Mean change from pretreatment baseline in QTc interval (mean ΔQTc), Individual Correction Method (healthy adults; [2]) | Mean change from pretreatment baseline in QTc interval (mean ΔQTc), Fridericia correction (healthy adults; [3]) | Mean change from pretreatment baseline in QTc interval (mean ΔQTc), Bazett correction (healthy adults; [4]) | Mean change from pretreatment baseline in QTc interval (mean ΔQTc), Individual Correction Method (healthy adults; [4]) | Mean change from pretreatment baseline in QTc interval (mean ΔQTc), Fridericia correction (healthy adults; [4]) | Maximum decrease in QTc-F compared to baseline (healthy adults) [ms] | Number of subjects with QTc shortening between 30 and 60 ms compared to baseline (healthy adults; steady state (Day 7)) [subjects] | Systemic exposure between the 2 single doses ([1]; 400 mg doses on Day 1 and Day 7) | Gender effect with regard to QTc reduction (healthy adults; 20 men and 18 women) | Delayed post-treatment effect on QT/QTc intervals (healthy adults; Days 8-10) | Reduction of the mean QTc-F interval compared to pretreatment baseline (Day 0) (healthy adults; after initial treatment (Day 1)) [ms] | Reduction of the mean QTc-F interval compared to pretreatment baseline (Day 0) (healthy adults; at steady state (Day 7)) [ms] | Lowest QTc-F value (healthy adults; observed in 3 subjects (2 test compound, 1 placebo)) [ms] | Time after the last dose of Day 7 by which the QTc shortening effect disappeared (healthy adults; post-treatment ECGs at 24, 36, 48, 72 hours) [h] | Number of subjects with QTc-F slightly below 350 ms (healthy adults; steady state (Day 7)) [subjects] | Pharmacokinetics (linearity / dose proportionality) ([1]; after single- and multiple-dose administration)
1 | COc1c(N2C[C@@H]3CCCN[C@@H]3C2)c(F)cc2c(=O)c(C(=O)O)cn(C3CC3)c12 [Moxifloxacin, reference compound] | +6.5 ms | +6.6 ms | +6.7 ms | +3.2 ms | +0.8 ms | +1.6 ms | 45 | 5 | consistent |  |  |  |  |  |  |  | 
2 | NC(=O)OC[C@@H](O)c1ccccc1Cl [test compound] | -3.2 ms | -3.7 ms | -3.1 ms | -7.4 ms | -12.1 ms | -11.2 ms | 47 | 14 |  | no gender effect | no apparent delayed post-treatment effect | 3.1 | 11.2 | 348 | ≤ 24 | 2 | linear and proportional
